Experiment: gradient 5% acetonitrile 3 min, to 50% in 2 min, to 85% in 15 min, held 3 min, 100 µL/min
Conditions: column: Zorbax Extend-C18 2.1 x 50 mm; eluents: water / acetonitrile, 0.1% formic acid
How it was run: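 Mixtures of ~100 pure standards were chromatographed on a Zorbax Extend-C18 column (2.1 × 50 mm, 1.8 μm) at 100 μL/min using water and acetonitrile, each with 0.1% formic acid. Detection used a quadrupole time-of-flight mass spectrometer in positive and negative ionization mode, and data collection spanned 3 months. Retention time was obtained from adduct peaks picked computationally and each checked manually.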

RP-LC retention time	Compound
716 s	CSc1nnc(-c2nn(C)c3c2CN(C(=O)c2ccc(C)cc2)CC3)n1C
1080 s	Fc1ccccc1-c1noc(Cc2nnc(-c3cccc(Cl)c3)o2)n1
648 s	CCN1CCN(c2nc3cc(C(=O)OC)ccc3c(=O)n2-c2ccc3c(c2)OCO3)CC1
940 s	Cc1cccc(C(=O)N2N=C(c3ccco3)CC2c2cccs2)c1 (centres undefined)
816 s	CSc1ccc(CNC(=O)Cn2c(C)cc(-c3nnc(C4CC4)o3)c2C)cc1
1320 s	CCc1ccc(NC(=O)Cc2c(C)nn(-c3nc(-c4ccc(C)cc4)cs3)c2C)cc1
706 s	CCn1c(=O)n(CC(=O)NCCN2CCCC2)c(=O)c2cnc(-c3ccc(Cl)cc3)nc21
981 s	O=C(C1CCN(c2nc3ccc(-c4cccc(F)c4)nc3s2)CC1)N1CCCC1
840 s	COc1ccc(NC(=O)N2CCC(c3nc(C(=O)N(C)C)c(C)o3)CC2)cc1Cl
796 s	COc1ccc(OC)c(CNC(=O)Cc2nnc(-c3cccc(Br)c3)o2)c1
717 s	C=CCn1c(C)c(CC(=O)NCC2CCCO2)c(=O)n2nc(-c3ccccc3)nc12 (centres undefined)
1050 s	CCOc1cccc(-c2noc(Cn3c(=O)n(-c4ccc(F)cc4)c(=O)c4sccc43)n2)c1
756 s	COc1cccc(S(=O)(=O)N2CCC(c3cc(N)on3)CC2)c1
809 s	COc1ccc(NC(=O)c2sc(N3CCCC3=O)nc2C)cc1Cl
819 s	Cc1cccc(-c2nc(N3CCCC3)ncc2C(=O)O)c1
1030 s	O=C(NCc1nc(-c2cccc(-c3csc(C4CC4)n3)c2)no1)c1ccccc1
843 s	Cc1cc(Cl)ccc1NC(=O)C1CC(=O)N(c2ccc3c(c2)CCN3C(=O)C2CC2)C1 (centres undefined)
1360 s	Cc1ccc(-n2nc(C)c3sc(N4CCCC(C(=O)Nc5cc(Cl)ccc5C)C4)nc32)cc1 (centres undefined)
962 s	COc1cc(OC)cc(C(=O)Nc2nc(-c3ccc4c(c3)NC(=O)C(C)O4)c(C)s2)c1 (centres undefined)
907 s	COC(=O)c1ccccc1S(=O)(=O)N1CCc2c(c(-c3nnc(-c4ccccc4)o3)nn2C)C1
798 s	COC(=O)c1ncn2c1C(=O)N(Cc1ccc(Cl)cc1)C(C)(C(=O)NC1CCCCC1)C2 (centres undefined)
696 s	COCCc1nncn1C1CCN(S(=O)(=O)c2cccc(F)c2)CC1
579 s	CN1C(=O)CCc2cc(NC(=O)c3ccncc3)ccc21

RP-LC retention time	Compound
719 s	CCc1noc(NC(C)=O)c1-c1ccc(C)c(S(=O)(=O)Nc2ccccc2)c1
1200 s	COc1nc2ccccc2nc1N1CCCC(C(=O)Nc2cc(F)ccc2F)C1 (centres undefined)
752 s	O=C(Cn1c(=O)c2cc(C3CC3)nn2c2ncccc21)Nc1ccccc1
688 s	O=C(Nc1cc(F)cc(F)c1)N1CCCN(C2CCN(Cc3ccc(F)cc3)C2=O)CC1 (centres undefined)
802 s	COc1ccc(OCc2noc(CNC(=O)C3(c4ccccc4)CCOCC3)n2)cc1
1220 s	Cc1ccc(C)c(-c2cc3c(=O)n(Cc4nc(-c5ccccc5Br)no4)ncn3n2)c1
844 s	COc1cccc(CNC(=O)CN2CCN(Cc3ccc(F)cc3Cl)C2=O)c1
874 s	CC(C)NC(=O)c1ccc(-c2ccc(Cl)cc2)o1
1090 s	Cc1nc(-c2csc(S(=O)(=O)N3CCC(C(=O)Nc4ccc(C(C)C)cc4)CC3)c2)no1
630 s	COc1ccc(NC(=O)N2CCC(CCOc3cccnc3)CC2)cc1
648 s	COc1cccc(N2CCN(C(=O)C3CCN(c4cncnc4N(C)C)CC3)CC2)c1
881 s	CCn1c(=O)sc2cc(S(=O)(=O)N3CCC(C(=O)NCc4ccccc4OC)CC3)ccc21
821 s	COc1ccc(N2CCN(C(=O)C3CCCN(C(=O)c4cc5sccc5n4C)C3)CC2)cc1 (centres undefined)
680 s	O=C(NCc1cccc(F)c1)C1CCN(c2cnc3nccnc3c2)CC1
639 s	COc1ccccc1C(=O)N1CCC(Oc2cc(N(C)C)ncn2)C1 (centres undefined)
760 s	CCCc1cc(C2CCCN2C(=O)Cc2ccc(OC)c(OC)c2)no1 (centres undefined)
904 s	Cc1cc(C)n(Cc2nc(-c3ccc(NC(=O)C(C)(C)C)cc3)oc2C)n1
697 s	CCN1C(=O)c2cccnc2Sc2cc(C(=O)NC(C)C)ccc21
685 s	O=C(Cc1nnc2cc(-c3nc(C4CC4)no3)ccn12)N1CCCCCC1
728 s	Cc1oc2c(C)c3oc(=O)c(CCC(=O)N4CCN(c5ccccn5)CC4)c(C)c3cc2c1C
927 s	CCc1ccc(N2CC(c3noc(-c4cc(OC)c(OC)c(OC)c4)n3)CC2=O)cc1 (centres undefined)
948 s	CC1(C)CC2CC(C)(CN2c2nc(-c3ccccc3)nc3ccccc23)C1 (centres undefined)
982 s	Cc1nc(-c2csc(S(=O)(=O)N3CCCC(C(=O)NCCc4ccc(Cl)cc4)C3)c2)no1 (centres undefined)

Continued, compound first:

Compound	RP-LC retention time
Cc1cc(N2CCN(C(=O)c3ccc(Br)o3)CC2)nc(N2CCOCC2)n1	599 s
Cc1noc(CNC(=O)C2CCN(C(=O)Cc3ccccc3Cl)CC2)n1	590 s
CCC(COC(=O)c1cc(OC)c(OC)c(OC)c1)(c1ccccc1)N(C)C (centres undefined)	752 s
O=C(Nc1ccc2c(c1)CCC2)C1CCc2nc(N3CCOCC3)ncc2C1 (centres undefined)	793 s
O=C(NCC1(CO)CC1)NC1CCCCC1	621 s
CC(C)Cc1ccc(S(=O)(=O)N2CCC3(CC2)NCCN=C3NCc2ccccc2)cc1	856 s
CCS(=O)(=O)N1CCCc2cc(C(=O)NCCC3=CCCCC3)ccc21	987 s
O=C(c1cc2ccccc2[nH]1)N1CCOCC1	713 s
O=c1n(Cc2cc(F)cc(F)c2)nc2c(S(=O)(=O)N3CCCCCC3)cccn12	973 s
CN(C)c1cc2c(cc1NC(=O)Cc1ccccc1Cl)n(C)c(=O)c(=O)n2C	754 s
CC(NC(=O)c1ccccc1F)C(=O)N1CCN(c2ccccn2)CC1 (centres undefined)	574 s
O=C(Cn1cnc2nc(N3CCC(C(=O)NC4CC4)CC3)sc2c1=O)NC1CCCCC1	649 s
CCS(=O)(=O)Nc1ccc(C2(C(=O)NCc3ccc(F)cc3F)CCCCC2)cc1	972 s
CC(C)CCNC(=O)Cn1ccn2nc(-c3ccc(F)cc3)c(CO)c2c1=O	804 s
CCN1c2ccccc2C(=O)NC12CCN(C(=O)c1ccc(F)cc1)CC2	756 s
O=C(NC1CC1)C1CCN(c2nc3ccc(-c4cccs4)nc3s2)CC1	809 s
COC(=O)c1ccc(S(=O)(=O)N2CCN(S(=O)(=O)C3CC3)CC2)cc1	878 s
O=C(Cc1cccc(F)c1)N1CCC2(CC1)Nc1ccccc1-n1cccc12	998 s
O=C(c1cc(Cl)ccc1F)N1CCC(c2nc(C3CC3)n[nH]2)CC1	611 s
O=C(CSc1ncccc1C(=O)O)Nc1nc(-c2ccccc2)cs1	822 s
Cc1ccc(NC(=O)N(C)CC2CCOCC2)cc1C	795 s
CC1(C)CC(=O)c2cn(-c3ccccc3)c(=O)c(C(=O)NC3CCCCC3)c2C1	1010 s

Compound	RP-LC retention time
O=C(NCCCn1nc(-c2ccco2)ccc1=O)Nc1ccc2c(c1)OCO2	678 s
Cc1ccc(C(=O)Nc2ccc(S(N)(=O)=O)cc2)cc1Br	768 s
O=C(Nc1ccccc1F)N1CC(c2nc(CCOCC3CCCC3)no2)C1	946 s
CCC(=O)Nc1cccn2nc(C3CCC3)nc12	735 s
COc1ccc(NC(=O)N2[C@H]3CC[C@@H]2c2cnc(-c4ccc(F)cc4)nc2C3)c(OC)c1	961 s
CC(C)NC(=O)c1cnn2c(-c3ccccn3)ccnc12	718 s
CC(Oc1ccccc1)C(=O)N1CCN(c2nc(CN3CCOCC3)cs2)CC1 (centres undefined)	621 s
CCNc1ncnc2sc3c(c12)CCN(C(=O)CCOC)C3	610 s
CCCN1CCN(C(=O)CC2CCN(C(=O)c3[nH]c(C)c(C(=O)OC(C)C)c3C)CC2)CC1	624 s
O=C1CS(=O)C2(CCN(S(=O)(=O)Cc3ccccc3)CC2)N1CC1CC1 (centres undefined)	713 s
CCCNC(=O)N1CCC2(CC1)NCCc1c2[nH]c2ccccc12	613 s
O=C(Nc1nc(CC(=O)N2CCN(c3ncccn3)CC2)cs1)C1CCCC1	669 s
O=c1ccc(-n2cccn2)nn1CCNS(=O)(=O)c1ccc(F)c(Cl)c1	722 s
CN1CCN(c2c3c(nc4nc(-c5ccccc5)nn24)CCCC3)CC1	582 s
COc1ccc2c(c1)C1(CCN(C(=O)COc3ccccc3)C1)C(=O)N2 (centres undefined)	733 s
CCN1c2ccccc2C(=O)NC12CCN(C(=O)NCCc1ccccc1)CC2	773 s
O=S(=O)(NCCOc1ccc2c(c1)OCO2)c1ccc(F)c(Cl)c1	903 s
O=C(c1cc(F)ccc1Cl)N1CCN(C(=O)c2nnn3c2COC(c2ccccc2)C3)CC1 (centres undefined)	894 s
O=S(=O)(Nc1ccc(F)cc1)c1cccnc1Nc1ccc(Cl)cc1	1120 s
O=C(Cc1nc(-c2cnccn2)n[nH]1)NCc1ccccc1	583 s
CNC(=O)[C@@H]1C[C@H](Oc2ccccc2)CN1C(=O)C1CC=CC1	710 s
